# Measured values reported in paper PMC4438668, “Quantitative High-Throughput Identification of Drugs as Modulators of Human Constitutive Androstane Receptor” (Scientific Reports, 2015).
# “Also recorded” adds a separate entry of the source. Read-outs that look alike come from different tables or passages of the source.
# Experiments:
# [1] = target: T1, EYFP-hCAR (Homo sapiens, UniProt Q14994); experiment: Nuclear translocation of Ad/EYFP-hCAR in human primary hepatocytes; type: cell-based; conditions: HPH
# T1 construct: expressed in transfected cells; host or cells: human primary hepatocytes infected with Ad/EYFP-hCAR
# T1 sequence (Q14994 1-348 isoform Q14994-2): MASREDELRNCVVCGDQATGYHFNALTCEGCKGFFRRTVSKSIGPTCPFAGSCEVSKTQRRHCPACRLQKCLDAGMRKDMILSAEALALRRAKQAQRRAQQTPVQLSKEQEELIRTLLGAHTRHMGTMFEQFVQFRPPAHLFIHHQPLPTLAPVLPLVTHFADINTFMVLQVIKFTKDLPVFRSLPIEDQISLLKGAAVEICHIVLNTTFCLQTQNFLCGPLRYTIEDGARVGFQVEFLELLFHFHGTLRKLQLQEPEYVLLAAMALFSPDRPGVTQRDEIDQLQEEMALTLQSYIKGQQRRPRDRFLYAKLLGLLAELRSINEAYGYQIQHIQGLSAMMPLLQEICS
# Description: A recombinant adenovirus expressing enhanced yellow fluorescent protein-tagged hCAR (Ad/EYFP-hCAR) was generated as described previously. Hepatocytes cultured in 96-well collagen-coated plates in serum free Williams’ E medium were infected with Ad/EFYP-hCAR (1 μl/well) for 12 h before treatment with the vehicle control, DMSO (0.1%), PB (1 mM), and selected compounds for another 8 h. Subcellular localization of hCAR was visualized using a Nikon (Tokyo, Japan) C1-LU3 instrument based on an inverted Nikon Eclipse TE2000 microscope.
# [2] = target: T2, human CAR (hCAR) (Homo sapiens, UniProt Q14994); experiment: hCAR luciferase reporter qHTS, agonist mode (HepG2-CYP2B6-hCAR cells, PK11195 co-treatment); conditions: agonist mode; for Follow-up Confirmation Efficacy: relative to CITCO (100%); for Primary Screen Efficacy: relative to CITCO Emax (100%)
# T2 sequence (Q14994 1-348 isoform Q14994-2): T1 sequence (Q14994 1-348 isoform Q14994-2)
# [3] = system: CAR, CYP2B6, or CYP3A4; conditions: previously known; reference not given; cited from earlier work
# [4] = system: CYP2B6; experiment: CYP2B6 mRNA expression in HPH (real-time PCR); conditions: for Induction of hCAR target genes / Effect on CYP2B6 mRNA expression: HPH; for Induction of hCAR target genes: target genes CYP2B6 and CYP3A4; for Effect on CYP2B6 mRNA expression: 24 h, vs vehicle control (0.1% DMSO)
# [5] = target: T3, hPXR (Homo sapiens, UniProt O75469); experiment: Transient hPXR luciferase assay in HepG2 cells (CYP2B6-2.2 kb reporter); type: cell-based
# T3 construct: expressed in transfected cells; host or cells: HepG2 (transient transfection)
# T3 sequence (O75469 1-434): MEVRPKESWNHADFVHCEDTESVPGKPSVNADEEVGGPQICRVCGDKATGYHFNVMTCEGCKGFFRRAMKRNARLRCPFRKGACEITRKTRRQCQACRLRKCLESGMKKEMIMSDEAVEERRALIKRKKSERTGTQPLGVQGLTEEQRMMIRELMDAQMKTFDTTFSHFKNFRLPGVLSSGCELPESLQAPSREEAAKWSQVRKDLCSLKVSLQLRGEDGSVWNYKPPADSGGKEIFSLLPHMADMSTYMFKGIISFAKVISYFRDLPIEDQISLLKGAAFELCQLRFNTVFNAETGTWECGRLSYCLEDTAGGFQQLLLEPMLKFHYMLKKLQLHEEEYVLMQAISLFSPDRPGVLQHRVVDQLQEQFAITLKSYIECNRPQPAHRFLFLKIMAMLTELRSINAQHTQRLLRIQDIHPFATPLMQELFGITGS
# Description: HepG2 cells cultured in a 24-well plate were co-transfected with the CYP2B6-2.2 kb reporter and hPXR expression vectors using a Lipofectamine® 2000 Transfection Kit (Life Technologies) following the manufacturer’s instruction. […] Cell lysates were assayed for firefly luciferase activities normalized against the activities of co-transfected Renilla luciferase using a Dual-Luciferase Kit (Promega). Data were represented as mean±SD of three individual transfections.
# [6] = system: CYP2B6 and CYP3A4 proteins; experiment: Immunoblotting of CYP2B6 and CYP3A4 proteins in HPH; type: cell-based, human; conditions: immunoblotting (Fig. 3C)
# Description: Homogenate proteins (30 μg) from treated HPH were resolved on an SDS polyacrylamide gel and electrophoretically transferred onto Immobilon-P polyvinylidene difluoride membranes and blocked using 5% blotting-grade blocker (nonfat dry milk, Bio-RAD). Subsequently, membranes were incubated with specific antibodies against CYP2B6 (1:200), CYP3A4 (1:5000), and β-actin (1:50,000) diluted in 1% blotting-grade blocker. β-Actin was used to normalize protein loadings. Membranes were washed using 1x Tris buffered saline–Tween 20 (Bio-RAD) and incubated with horseradish peroxidase goat anti-rabbit IgG antibody diluted at 1:5000, and developed using ECL Western blotting detection reagent (Thermo-Scientific Inc).
# [7] = system: CYP3A4; experiment: CYP3A4 mRNA expression in HPH (real-time PCR); type: cell-based, human; conditions: for Effect on CYP3A4 mRNA expression: HPH, 24 h, vs vehicle control (0.1% DMSO)
# [8] = target: T2, human CAR (hCAR)
# [9] = system: HepG2-CYP2B6-hCAR cells; experiment: Cell viability assay (CellTiter-Glo ATP quantitation); type: cell-based, human; parameters: key to Cytotoxicity (activity call): Inactive: considered inactive if efficacy is less than 30%; conditions: 24 h
# Description: (§1) The potential cytotoxicity of the NPC compounds in HepG2-CYP2B6-hCAR cells was measured using a luciferase-coupled ATP quantitation assay (CellTiter-Glo viability assay, Promega). The change of intracellular ATP content indicates the number of metabolically competent cells. The cells were seeded at 2,500 cells/5 μl in 1536-well plates and were exposed to each test compound at concentrations and treatment duration as previously mentioned. The assay plates were incubated for 24 h at 37 °C, followed by the addition of 4 μl/well of CellTiter-Glo reagent. After 30 min incubation at RT, the luminescence intensity of the plates was measured using a ViewLux plate reader.
# [10] = target: T2, human CAR (hCAR); experiment: hCAR luciferase reporter qHTS, antagonist mode (HepG2-CYP2B6-hCAR cells, CITCO co-treatment); conditions: antagonist mode;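 also: stable HepG2 line carrying hCAR plus a CYP2B6 promoter (PBREM/XREM) luciferase reporter, 1536-well format, 24 h compound exposure at 37 °C, then luminescence read with ONE-Glo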
# [11] = target: T2, human CAR (hCAR); remark: listed apart in the source
# [12] = Cell viability assay (CellTiter-Glo ATP quantitation); type: cell-based, human; parameters: key to Cytotoxicity (activity call): Inactive: considered inactive if efficacy is less than 30%; conditions: human, HepG2-CYP2B6-hCAR cells, read-out: Cytotoxicity Potency
# Description: as §1
# [13] = system: human primary hepatocytes; experiment: MTT cytotoxicity assay in HPH; type: cell-based; conditions: 1 μM, 24 hours, donor HL-104
# Description: Figure S1. […] Human primary
# was carried out following the manufacturer’s instruction. Data represent the mean ± SD (n =3).
# (1 picture or pasted object on this page, not shown here)
# [14] = Follow-up Confirmation Potency (EC50), follow-up cherry-pick, 11-point titration
# [15] = Primary Screen Potency (EC50), primary qHTS, 2.5 μM PK11195, 24 h
# [16] = Follow-up Confirmation Potency (IC50), follow-up cherry-pick, 11-point titration
# [17] = Primary Screen Potency (IC50), primary qHTS, 0.1 μM CITCO, 24 h
# [18] = HPH donor HL-104, 24 h, daunorubicin 1, 2.5 and 5 µM, bortezomib 0.1, 0.5, and 1 µM
smiles,measurement,setting,value
NNCCc1ccccc1 [Phenelzine],hCAR nuclear translocation (in words),[1],didn’t translocate hCAR
same,hCAR nuclear translocation (in words),[1]; listed as phenelzine,neither translocated hCAR
same,EC50,[2]; [14],15.9 µM
same,EC50,[2]; [15],15.1 µM
same,Follow-up Confirmation Efficacy,[2]; follow-up cherry-pick,70%
same,Primary Screen Efficacy,[2]; primary qHTS,145%
same,"Known modulator of CAR, CYP2B6, or CYP3A4?",[3],CYP3A4 weak inhibitor
same,Induction of hCAR target genes,[4],negligible induction
same,Induction of hCAR target genes,[4]; listed as phenelzine,nor induced the expression of its target genes
CN1CCc2cccc3c2[C@H]1Cc1ccc(O)c(O)c1-3 [Apomorphine],hCAR nuclear translocation (in words),[1],didn’t translocate hCAR; also recorded: neither translocated hCAR
same,EC50,[2]; [14],13.3 µM
same,EC50,[2]; [15],19 µM
same,Follow-up Confirmation Efficacy,[2]; follow-up cherry-pick,38%
same,Primary Screen Efficacy,[2]; primary qHTS,21%
same,Induction of hCAR target genes,[4],negligible induction; also recorded: nor induced the expression of its target genes
CC(C)=CCOc1c2occc2cc2ccc(=O)oc12 [Imperatorin],hPXR activation,[5],moderately activated hPXR
same,Induction of CYP2B6 and CYP3A4 at the protein level,[6],preferential induction of CYP2B6 over CYP3A4
same,EC50,[2]; [14],14 µM
same,EC50,[2]; [15],10.7 µM
same,"Known modulator of CAR, CYP2B6, or CYP3A4?",[3],Cyp2b10 inducer
same,Effect on CYP3A4 mRNA expression,[7],marginal effect; also recorded: only marginally increased
same,Follow-up Confirmation Efficacy,[8],238%
same,Primary Screen Efficacy,[8],146%
Nc1ccc(Cl)cc1C(=O)c1ccccc1F [2-Amino-5-chloro-2’-fluorobenzophenone],hCAR nuclear translocation (in words),[1]; listed as ACFB,didn’t translocate hCAR; also recorded: neither translocated hCAR
same,EC50,[2]; [14],15.6 µM
same,EC50,[2]; [15],3.4 µM
same,Follow-up Confirmation Efficacy,[2]; follow-up cherry-pick,67%
same,Primary Screen Efficacy,[2]; primary qHTS,60%
same,Induction of hCAR target genes,[4]; listed as ACFB,negligible induction; also recorded: nor induced the expression of its target genes
O=c1cc(-c2ccccc2)oc2ccccc12 [Flavone],hPXR activation,[5]; data not shown,moderately activated hPXR
same,Induction of CYP2B6 and CYP3A4 at the protein level,[6],preferential induction of CYP2B6 over CYP3A4
same,EC50,[2]; [14],32.4 µM
same,EC50,[2]; [15],34 µM
same,Follow-up Confirmation Efficacy,[2]; follow-up cherry-pick,200%
same,Primary Screen Efficacy,[2]; primary qHTS,184%
same,"Known modulator of CAR, CYP2B6, or CYP3A4?",[3],Dietary flavonoids activate CAR
same,Effect on CYP3A4 mRNA expression,[7],marginal effect; also recorded: only marginally increased
same,Effect on CYP2B6 mRNA expression,[4],significantly induced; also recorded: markedly induced
C[C@@H]1O[C@@H](O[C@H]2C[C@@H](O)[C@]3(CO)[C@H]4[C@H](O)C[C@]5(C)[C@@H](C6=CC(=O)OC6)CC[C@]5(O)[C@@H]4CC[C@]3(O)C2)[C@H](O)[C@H](O)[C@H]1O [Ouabain],Cytotoxicity (activity call),[9],Inactive
same,IC50,[10]; [16],0.47 µM
same,IC50,[10]; [17],0.3 µM
same,Follow-up Confirmation Efficacy,[11],0.47 (-99%)
same,Primary Screen Efficacy,[11],0.30 (-104%)
CCCCc1ccc(O)cc1 [4-butylphenol],Identified as hCAR antagonist/deactivator in the qHTS,[11],recognized in the current study
CC(C)C[C@H](NC(=O)[C@H](Cc1ccccc1)NC(=O)c1cnccn1)B(O)O [Bortezomib],Cytotoxicity Efficacy,[9],-57%
same,IC50 at 24 h,[12],1.25 µM
same,IC50,[10]; [16],0.03 µM
same,IC50,[10]; [17],0.02 µM
same,Primary Screen Efficacy,"[10]; primary qHTS, relative to PK11195 (100%)",-103%
same,Concentration-dependent effect on CYP3A4 mRNA expression,[7]; [18],marked and concentration-dependent repression
same,Cytotoxicity in HPH (MTT),[13],not associated with significant cytotoxicity
same,Concentration-dependent effect on CYP2B6 mRNA expression,[4]; [18],marked and concentration-dependent repression
same,Effect on CYP2B6 mRNA expression,[4],most potent repressors of CYP2B6
COc1cccc2c1C(=O)c1c(O)c3c(c(O)c1C2=O)C[C@@](O)(C(C)=O)C[C@@H]3O[C@H]1C[C@H](N)[C@H](O)[C@H](C)O1 [Daunorubicin],Effect on basal and RIF-induced PXR activity,"[5]; HepG2, 24 h, in the presence or absence of rifampicin (10 μM)",only repressed RIF-induced PXR activity
same,Cytotoxicity Efficacy,[9],-43%
same,IC50 at 24 h,[12],15.9 µM
same,Effect on CYP2B6 mRNA expression,[4],most potent repressors of CYP2B6
